{
  "source": "patent US20100029575A1",
  "about": "“N-Oxides of Kappa Receptor Peptides” (priority 2006, published 2010)",
  "key": {"[1]": {"molecular_target": "T1, Mu Opioid Receptor (Rattus norvegicus, UniProt P33535)", "T1 construct": "from tissue; host or cells: rat brain membranes", "test": "Mu opioid receptor binding, competitive displacement of bound radioligand (rat brain membranes)", "source_text": "(§1) Receptor assays are well known in the art and kappa opioid receptors from several species have been cloned, as have mu and delta opioid receptors. Kappa opioid receptors as well as mu and delta opioid receptors are classical, seven-transmembrane spanning, G-protein coupled receptors. Although these cloned receptors readily allow a particular candidate compound, e.g., a peptide, to be screened, natural sources of mammalian opioid receptors are also useful for screening, as is well known in the art (Dooley C T et al. Selective ligands for the mu, delta, and kappa opioid receptors identified from a single mixture based tetrapeptide positional scanning combinatorial library. J. Biol. Chem. 273:18848-56, 1998). Thus, screening against both kappa and mu opioid receptors, whether of recombinant or natural origin, may be carried out in order to determine the selectivity of the compound(s) for the kappa relative to the mu opioid receptor.\n(§2) Binding affinity refers to the strength of interaction between ligand and receptor. […] These studies can be performed using cloned kappa and mu opioid receptors expressed in stable transfected cell lines or naturally occurring opioid receptors from a receptor-enriched tissue source, as noted above. In these studies, the test compounds (unlabeled ligands) are used at increasing concentrations to displace the specific binding of a radiolabeled ligand that has high affinity and selectivity for the receptor studied. Tritiated U-69,593 and DAMGO can be used as ligands in kappa and mu opioid receptor studies, respectively. Both ligands are commercially available (NEN-Dupont). DAMGO is an acronym for [D-Ala^2, MePhe^4, Gly-ol^5]-enkephalin. The affinity of the radioligands is defined by the concentration of radioligand that results in half-maximal specific binding (KD) in saturation studies. The affinity of the test compound (unlabeled or cold ligand) is determined in competition binding studies by calculating the inhibitory constant (Ki) according to the following formula:\n(§3) where IC50=Concentration of the cold ligand that inhibits 50% of the specific binding of the radioligand\n(§4) F=free radioligand concentration\n(§5) KD=affinity of the radioligand determined in saturation studies.\n(§6) When performing these assays under specific conditions with relatively low concentrations of receptor, the calculated Ki for the test compound is a good approximation of its dissociation constant KD, which represents the concentration of ligand necessary to occupy one-half (50%) of the binding sites. […]\n(§7) These binding assays employing kappa opioid receptors and mu opioid receptors are straightforward to perform and can be readily carried out with large numbers of compounds to determine whether such compounds are kappa opioid receptor-selective and have high affinity. […]"}, "[2]": {"molecular_target": "P450 2C9 (Homo sapiens, UniProt P11712)", "test": "P450 2C9 inhibition", "assay_type": "in vitro ADME", "experimental": "(§8) Enzyme assays are well known in the art and CYP450 enzymes from several species have been cloned. Although these cloned enzymes readily allow a particular candidate compound, e.g., a peptide, to be screened, natural sources of CYP450 enzymes, e.g., liver microsomes, are also useful for screening, as is well known in the art. Preferred analogs have a Ki for CYP450 enzymes of about 10 micromolar (uM) or more, whereas more preferred analogs have a Ki for […] of about 100 uM or more. For the purpose of identifying useful compounds of the invention, the IC50 is a useful approximation of the Ki."}, "[3]": {"tested_on": "cytochrome P450 enzymes", "test": "Cytochrome P450 enzyme activities", "assay_type": "in vitro ADME", "details": "summary of Table 4", "experimental": "as §8"}, "[4]": {"molecular_target": "T2, P450 1A2 (Homo sapiens, UniProt P05177)", "T2 sequence (P05177 1-516)": "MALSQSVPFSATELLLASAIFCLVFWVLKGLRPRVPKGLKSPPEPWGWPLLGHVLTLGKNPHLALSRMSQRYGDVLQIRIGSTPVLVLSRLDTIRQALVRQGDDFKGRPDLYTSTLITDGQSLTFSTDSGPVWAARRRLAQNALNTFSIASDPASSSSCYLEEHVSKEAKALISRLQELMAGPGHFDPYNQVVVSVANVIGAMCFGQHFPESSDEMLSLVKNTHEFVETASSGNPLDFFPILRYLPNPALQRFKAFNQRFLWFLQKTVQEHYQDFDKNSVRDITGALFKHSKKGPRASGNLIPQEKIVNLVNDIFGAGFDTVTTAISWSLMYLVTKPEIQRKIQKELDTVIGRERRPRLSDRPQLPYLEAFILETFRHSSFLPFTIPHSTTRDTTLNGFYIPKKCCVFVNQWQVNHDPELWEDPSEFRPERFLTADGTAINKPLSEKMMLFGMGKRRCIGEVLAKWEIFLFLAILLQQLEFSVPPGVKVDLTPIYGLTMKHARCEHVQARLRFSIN", "test": "P450 1A2 inhibition", "assay_type": "in vitro ADME", "experimental": "as §8"}, "[5]": {"molecular_target": "T3, Kappa Opioid Receptor (Cavia porcellus, UniProt P41144)", "T3 construct": "from tissue; host or cells: guinea pig brain membranes", "test": "Kappa opioid receptor binding, competitive displacement of bound radioligand (guinea pig brain membranes)", "details": "for IC50: Kappa Opioid Receptor Binding IC50, guinea pig brain; for Kappa Opioid Receptor Binding Pct Max: guinea pig brain", "source_text": "as §1, §2, §3, §4, §5, §6, §7"}, "[6]": {"molecular_target": "T4, P450 3A4 (Homo sapiens, UniProt P08684)", "test": "P450 3A4/BQ inhibition", "assay_type": "in vitro ADME", "experimental": "as §8"}, "[7]": {"molecular_target": "T5, Kappa Opioid Receptor (Mus musculus, UniProt P33534)", "T5 construct": "(cAMP, mouse brain); from tissue; host or cells: mouse brain", "test": "Functional second messenger assay, Gi-mediated inhibition of adenylate cyclase (cAMP, mouse brain)", "assay_type": "biochemical", "details": "for EC50: Kappa Opioid Receptor Activity EC50, cAMP; for Kappa Opioid Receptor Activity Pct Max: cAMP"}, "[8]": {"molecular_target": "T4, P450 3A4", "test": "P450 3A4/BFC inhibition", "assay_type": "in vitro ADME", "experimental": "as §8"}},
  "note": "Values joined by “and” are separate entries in the source; they are usually repeats but may differ in a detail not shown here. Identical values can stand only once. Square brackets hold non-standard residues; d marks the D form. Peptide text beside a SMILES is read from it. * marks the point of attachment. dNle = CCCC[C@@H](N)C(=O)O; X1 = [O-][n+]1ccc(CN*)cc1",
  "data": [
    {"smiles": "CCCC[C@@H](NC(=O)[C@@H](Cc1ccccc1)NC(=O)[C@H](N)Cc1ccccc1)C(=O)N[C@H](CCCNC(=N)N)C(=O)NCc1cc[n+]([O-])cc1", "note": "[Peptide No. 1, H-D-Phe-D-Phe-D-Nle-D-Arg-NH-4-picolyl-N-oxide] (H-[dF][dF][dNle][dR]-X1)", "values": [
      {"measurement": "Mu Opioid Receptor Binding IC50", "setting": "[1]; rat brain", "value": "too high to determined"},
      {"measurement": "maximal binding inhibition at MOR", "setting": "[1]; rat brain membranes", "value": 15.5, "unit": "%"},
      {"measurement": "Mu Opioid Receptor Binding Pct Max", "setting": "[1]; rat brain, Sample 1", "value": 15.5, "unit": "Pct"},
      {"measurement": "Mu Opioid Receptor Binding IC50", "setting": "[1]; rat brain, listed as Peptide1", "value": "No Fit"},
      {"measurement": "IC50", "setting": "[2]", "value": "> 10000", "unit": "nM"},
      {"measurement": "P450 2C9 Inhibition Pct Max", "setting": "[2]; Mean", "value": 26, "unit": "Pct"},
      {"measurement": "P450 2C9 Inhibition Pct Max", "setting": "[2]; individual samples", "value": "21 Pct and 31 Pct"},
      {"measurement": "inhibitory activity on several cytochrome P450 enzyme activities", "setting": "[3]", "value": "absence of significant inhibitory activity"},
      {"measurement": "P450 1A2 Inhibition Pct Max", "setting": "[4]; Mean", "value": 13, "unit": "Pct"},
      {"measurement": "P450 1A2 Inhibition IC50", "setting": "[4]; individual samples", "value": "No Fit"},
      {"measurement": "P450 1A2 Inhibition Pct Max", "setting": "[4]; individual samples", "value": "15 Pct and 10 Pct"},
      {"measurement": "IC50", "setting": "[5]; Mean", "value": "~6.3 nM and 6.3 nM"},
      {"measurement": "IC50", "setting": "[5]; individual samples", "value": "2.6 nM and 9.4 nM and 4.2 nM"},
      {"measurement": "Kappa Opioid Receptor Binding Pct Max", "setting": "[5]; Mean", "value": 109.4, "unit": "Pct"},
      {"measurement": "Kappa Opioid Receptor Binding Pct Max", "setting": "[5]; individual samples, listed as Peptide1", "value": "105.2 Pct and 117.3 Pct and 105.6 Pct"},
      {"measurement": "P450 3A4/BQ Inhibition Pct Max", "setting": "[6]; Mean", "value": 18, "unit": "Pct"},
      {"measurement": "P450 3A4/BQ Inhibition IC50", "setting": "[6]; individual samples", "value": "No Fit"},
      {"measurement": "P450 3A4/BQ Inhibition Pct Max", "setting": "[6]; individual samples", "value": "15 Pct and 21 Pct"},
      {"measurement": "EC50", "setting": "[7]; Mean", "value": 0.42, "unit": "nM"},
      {"measurement": "EC50", "setting": "[7]; individual samples", "value": "0.3 nM and 0.57 nM"},
      {"measurement": "Kappa Opioid Receptor Activity Pct Max", "setting": "[7]; Mean", "value": 101.43, "unit": "Pct"},
      {"measurement": "Kappa Opioid Receptor Activity Pct Max", "setting": "[7]; individual samples, listed as Peptide 1", "value": "92.46 Pct and 110.41 Pct"},
      {"measurement": "P450 3A4/BFC Inhibition Pct Max", "setting": "[8]; Mean", "value": 26, "unit": "Pct"},
      {"measurement": "P450 3A4/BFC Inhibition IC50", "setting": "[8]; individual samples", "value": "No Fit"},
      {"measurement": "P450 3A4/BFC Inhibition Pct Max", "setting": "[8]; individual samples", "value": "22 Pct and 17 Pct and 40 Pct"}
    ]}
  ]
}
